Results published in US8828992B2, “Substituted azole derivatives, pharmaceutical composition containing the derivatives, and method for treating Parkinson's disease using the same” (priority 2009, dated 2014).
Read-outs that look alike come from different tables or passages of the source.

What was measured:
[1] = target: T1, Monoamineoxidase B type human-derived enzyme (Homo sapiens, UniProt P27338); assay: Inhibitory effects on the activity of MAO-B (Amplex Red fluorescence, benzylamine substrate); type: biochemical; conditions: read-out: Inhibitory effects (%) on the activity of MAO-B
T1 sequence (P27338 1-520): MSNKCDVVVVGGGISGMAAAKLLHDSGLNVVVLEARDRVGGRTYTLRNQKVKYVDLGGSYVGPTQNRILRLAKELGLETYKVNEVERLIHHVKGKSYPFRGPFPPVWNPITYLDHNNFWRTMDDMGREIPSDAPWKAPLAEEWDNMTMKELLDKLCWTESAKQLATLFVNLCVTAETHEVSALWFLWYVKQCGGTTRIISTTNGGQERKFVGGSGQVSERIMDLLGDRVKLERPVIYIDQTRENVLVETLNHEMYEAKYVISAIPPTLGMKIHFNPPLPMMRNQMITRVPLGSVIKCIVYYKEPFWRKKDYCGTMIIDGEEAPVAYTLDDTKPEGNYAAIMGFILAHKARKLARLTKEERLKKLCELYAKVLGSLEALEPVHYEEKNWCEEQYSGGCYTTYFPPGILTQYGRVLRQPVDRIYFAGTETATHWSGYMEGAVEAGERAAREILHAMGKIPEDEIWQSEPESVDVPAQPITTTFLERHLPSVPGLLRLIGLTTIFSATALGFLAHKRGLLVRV
How it was run: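 Human MAO-B, diluted 1:200 in 0.05 M sodium phosphate pH 7.4, was pre-incubated with compound for 30 min. It was then mixed 1:1 with working buffer holding 400 μM Amplex Red, 2 U/ml HRP and 2 mM benzylamine (working-buffer levels). Fluorescence (Ex 563/Em 587 nm) was read over 30 min.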

MPTP-induced mouse model = assay: Tail suspension test in MPTP-induced mouse model of Parkinson's disease; type: in vivo; conditions: Mus musculus, 168 h; administration concentration 10 (10 mg/kg), oral, 7 days after MPTP; % of control group (Sham); read-out: Mobility (%)
Method: (§1) A. MPTP (1-methyl-4-phenyl-1,2,3,6-tetrahydropyridine) and drug treatment MPTP (20 mg/kg, free base; Sigma, St. louis, Mo.) was administered to an 8 week old (20-25 g) male C57BL/6 test mouse intraperitoneally three times a day at the interval of 2 hours to construct a model (Breidert et al., 2002; Lichuan Yang, Shuei Sugama, Jason W. Chirichigno, Jason Gregorio, Stefan Lorenzl, Dong H. Shin, Susan E. Browne, Yoshinori Shimizu, Tong H. Joh, M. Flint Beal, l and David S. Alber. (2003) Minocycline Enhances MPTP Toxicity to Dopaminergic Neurons. J Neurosci Res. 74:278-285). In order to observe the protective effects of the compound as a candidate drug, the compound was dissolved in a solution containing 10% dimethylsulfoxide (DMSO), 10% Cremophor, and 40% polyethyleneglycol (PEG), […] treatment. Rasagiline as a control drug was also dissolved in the same solution, and the resulting solution was administered at the same doses in the same manner as above. A control group (Sham) in which MPTP was not administered was constructed by intraperitoneally administering saline solution to the group instead of MPTP in the same manner as above and orally administering the same solution 1 hour before and after PBS treatment.
A tail suspension test was performed in order to measure the induction degree of behavioral dysfunctions in accordance with administration of MPTP and a drug. At 7 days after administration of the drug, a round stainless steel rod (width: 1 cm) was affixed to a cage (width: 16 cm, height: 40 cm) 35 cm above from the surface shielded by black wooden structures in the left and right sides to perform experiments. The time for which the animal moved for a total period of 6 minutes was measured in seconds to evaluate the drug action.
Mobility refers to an expression of the measurement of the time for which the animal moved with its tail hung high as a percentage compared to the measurement of a control group.

[2] = tested on: dopamine (DA) in the striata of MPTP-treated mice; assay: Levels of dopamine in the striata of MPTP-treated mice (HPLC); type: in vivo; conditions: Mus musculus, po, 168 h, 10 mpk, 7 days after MPTP, read-out: Levels of dopamine (DA) in the striata, compared to a control group %
Method: as §1
The changes of contents of dopamine and dopamine metabolites in the striatum in accordance with administrations of MPTP and the drug were measured by high performance liquid chromatography (HPLC). At 7 days after administration of the drug, the animal was sacrificed by cervical vertebra dislocation and the brain tissues were immediately isolated from the animal. 0.5 ml of iced solution for HPLC analysis (0.1 M perchloric acid and 0.1 mM EDTA) was added to a striatum obtained from the isolated brain tissues, and an ultrasonic grinder was used to prepare a tissue homogenate. The tissue homogenate was centrifuged at 12,000 rpm for 15 minutes, and its supernatant was filtered through nitrocellulose membrane filter (0.2 um, Millipore). For HPLC analysis, uBondapak™ C18 column (4.6×150 mm, particle size 10 μm: Shisheido, Japan) was used, the flow rate of the mobile phase (0.07 M monobasic sodium phosphate), 1 mM sodium octasulfonic acid, 0.1 uM EDTA, 5% acetonitrile, pH 3.2) was maintained at 0.7 ml/min, and the electrode potential of the electrochemical detector (ICA-5000, Japan) was set at 700 mV.

[3] = tested on: dopamine (DA) in the striatum of a MPTP-treated mouse; assay: Combined administration with Levodopa group: dopamine in the striatum of MPTP-treated mouse (HPLC); type: in vivo; conditions: compound 1 mg/kg PO co-administered with Levodopa group (Levodopa 50 mg/kg + Benzerazide 25 mg/kg IP); for Concentration of dopamine compared to a control group %, 1 hr: 1 hr after Levodopa; for Concentration of dopamine compared to a control group %, 3 hr: 3 hr after Levodopa
Method: MPTP (20 mg/kg, free base; Sigma, St. louis, Mo.) was administered to an 8 week old (20-25 g) male C57BL/6 test mouse intraperitoneally at the interval of 2 hours to construct a model.
In order to observe the effects of combined administration of a compound of the present invention and Levodopa, the compound of the present invention was dissolved in a solution containing 0.02 ml of dimethylsulfoxide (DMSO), 0.02 ml of Cremophor, 0.08 ml of polyethyleneglycol (PEG), and 0.08 ml of physiological saline. The resulting solution was orally administered at doses of 1 mg/kg one week after the MPTP treatment, and a Levodopa group containing Levodopa at 50 mg/kg and Benzerazide at 25 mg/kg was intraperitoneally administered 1 hour later.
A single administration of the Levodopa group in the following Table 4 indicates values resulting from a MPTP (toxin) treatment followed by an administration of the Levodopa group compared to the treatment results of a Levodopa single administration group of Levodopa and Benzerazide.
At 1 hour and 3 hours after administration of Levodopa, the animals were sacrificed by cervical vertebra dislocation and the brain tissues were immediately isolated from the animals. 0.5 me of iced solution for HPLC analysis (0.1 M perchloric acid and 0.1 mM EDTA) was added to a striatum obtained from the isolated brain tissues, and an ultrasonic grinder was used to prepare a tissue homogenate. The tissue homogenate was centrifuged at 12,000 rpm for 15 minutes, and its supernatant was filtered through nitrocellulose membrane filter (0.2 um, Millipore). For HPLC analysis, uBondapak™ C18 column (4.6×150 mm, particle size 10 μm: Shisheido, Japan) was used, the flow rate of the mobile phase (0.07 M monobasic sodium phosphate, 1 mM sodium octasulfonic acid, 0.1 uM EDTA, 5% acetonitrile, pH 3.2) was maintained at 0.5 me/min, and the electrode potential of the electrochemical detector (CouloChem III, ESA, Japan) was set at 350 mV.

SMILES | inhibition at 0.01 µM [1] [%] | response vs control in vivo at 10 mg/kg (MPTP-induced mouse model) [%] | response vs control in vivo at 10 mg/kg [2] [%] | Concentration of dopamine compared to a control group %, 1 hr [3] [%] | Concentration of dopamine compared to a control group %, 3 hr [3] [%] | inhibition at 0.01 µM ([1]; treatment concentration 10 nM) [%]
NC(=O)OCc1cc(-c2ccc(OCc3ccccc3)cc2)no1 [Example 1, carbamic acid 3-(4-benzyloxy-phenyl)-isoxazole-5-ylmethyl ester] | 96.6 | 113 | 112 | 129.5 | 90.8 | 
NC(=O)OCc1cc(-c2ccc(OCc3ccccc3)c(Br)c2)no1 [Example 6, carbamic acid 3-(4-benzyloxy-3-bromo-phenyl)-isoxazol-5-ylmethyl ester] |  | 82.9 | 112 | 220.87 | 59.8 | 90.7
NC(=O)OCc1cc(-c2ccc(OCc3ccc(Cl)s3)cc2)no1 [Example 62, Carbamic acid 3-[4-(5-chloro-thiophen-2-ylmethoxy)-phenyl]-isoxazol-5-ylmethyl ester] | 98.6 | 97.3 | 99.1 | 204.8 | 65.4 | 
NC(=O)OCc1cc(-c2ccc(OCc3c(Cl)cncc3Cl)cc2)no1 [Example 69, Carbamic acid 3-[4-(3,5-dichloro-pyridin-4-ylmethoxy)-phenyl]-isoxazol-5-ylmethyl ester] |  | 97.4 | 100 | 205.2 | 200.4 | 83.6
CNC(=O)OCc1cc(-c2ccc(OCc3ccccc3)cc2)no1 [Example 121, methyl-carbamic acid 3-(4-benzyloxy-phenyl)-isoxazol-5-ylmethyl ester] |  | 91.2 | 97.9 | 144.6 | 89.2 | 82.8
Fc1cccc(F)c1COc1ccc(-c2cc(Cn3ccnc3)on2)cc1 [Example 143, 3-[4-(2,6-difluoro-benzyloxy)-phenyl]-5-imidazol-1-ylmethyl-isoxazole] |  | 98.9 | 46.1 |  |  | 98.1
